Reference: BindingDB's records for doi:10.3109/14756366.2012.740477 (Solapur University, 2013)

Molecular target: Urease (Canavalia ensiformis, UniProt P07374)
Assay: Urease Inhibition Assay
Details: pH 6.8; 30 °C
Description: Mixture of 25 μL of urease enzyme (Jack bean) solution containing 1 unit of enzyme (1 unit = 0.02 mg of enzyme) was dissolved in phosphate buffer of pH 6.8, 55 μL of buffer containing 100 mM urea, and 5 μL of test compounds (0.5 mM concentration) was incubated at 30°C for 15 min in 96-well plates. Urease activity was determined by measuring ammonia production using the iodophenol method38. Briefly, 45 μL each of phenol reagent and 70 μL of alkali reagent were added to each well. The increase in absorbance at 630 nm was measured after 50 min, using a microplate reader (Molecular Device, CA, USA). All reactions were performed in triplicate in a final volume of 200 μL. The results (change in absorbance per min) were processed using Soft-Max Pro software (Molecular Device, CA, USA).

Urease, sequence (P07374 whole entry): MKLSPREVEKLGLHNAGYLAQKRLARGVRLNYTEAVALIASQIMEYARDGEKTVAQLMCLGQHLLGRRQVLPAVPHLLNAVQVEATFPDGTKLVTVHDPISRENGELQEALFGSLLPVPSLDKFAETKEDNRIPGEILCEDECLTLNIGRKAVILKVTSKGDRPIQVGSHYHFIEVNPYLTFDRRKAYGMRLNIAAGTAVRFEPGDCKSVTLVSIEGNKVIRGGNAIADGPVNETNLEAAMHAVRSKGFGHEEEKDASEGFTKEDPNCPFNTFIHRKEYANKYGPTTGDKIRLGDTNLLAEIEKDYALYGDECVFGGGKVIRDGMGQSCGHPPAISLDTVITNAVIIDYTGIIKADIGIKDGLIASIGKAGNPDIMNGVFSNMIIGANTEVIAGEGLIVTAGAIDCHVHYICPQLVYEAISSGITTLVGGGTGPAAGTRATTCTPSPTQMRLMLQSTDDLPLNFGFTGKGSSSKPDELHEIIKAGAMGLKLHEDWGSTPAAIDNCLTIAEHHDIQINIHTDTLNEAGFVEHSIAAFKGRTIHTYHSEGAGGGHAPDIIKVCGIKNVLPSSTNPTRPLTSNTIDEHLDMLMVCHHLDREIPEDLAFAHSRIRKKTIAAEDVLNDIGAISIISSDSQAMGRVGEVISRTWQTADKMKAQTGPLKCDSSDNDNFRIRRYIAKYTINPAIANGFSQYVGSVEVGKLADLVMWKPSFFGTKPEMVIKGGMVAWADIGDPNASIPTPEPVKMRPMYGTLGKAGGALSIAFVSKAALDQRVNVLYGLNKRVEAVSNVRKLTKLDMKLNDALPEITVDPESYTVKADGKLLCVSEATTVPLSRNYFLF

Row | SMILES | IC50 [µM]
1 | Cn1c2ccccc2c2cc(-c3cc(-c4ccc(Cl)cc4Cl)nc(N)n3)ccc21 [4-(2,4-Dichlorophenyl)-6-(9-methyl-9H-carbazol-3-yl)-pyrimidin-2-amine (5i)] | 19.4
2 | Cn1c2ccccc2c2cc(-c3cc(-c4ccc(F)cc4F)nc(N)n3)ccc21 [4-(2,4-Difluorophenyl)-6-(9-methyl-9H-carbazol-3-yl)-pyrimidin-2-amine (5f)] | 40.2
3 | Cn1c2ccccc2c2cc(-c3cc(-c4cc(Cl)ccc4Cl)nc(N)n3)ccc21 [4-(2,5-Dichlorophenyl)-6-(9-methyl-9H-carbazol-3-yl)-pyrimidin-2-amine (5k)] | 28.1
4 | Cn1c2ccccc2c2cc(-c3cc(-c4ccc(Cl)c(Cl)c4)nc(N)n3)ccc21 [4-(3,4-Dichlorophenyl)-6-(9-methyl-9H-carbazol-3-yl)-pyrimidin-2-amine (5j)] | 23.2
5 | Cn1c2ccccc2c2cc(-c3cc(-c4ccc(F)c(F)c4)nc(N)n3)ccc21 [4-(3,4-Difluorophenyl)-6-(9-methyl-9H-carbazol-3-yl)-pyrimidin-2-amine (5g)] | 45.2
6 | COc1ccc(-c2cc(-c3ccc4c(c3)c3ccccc3n4C)nc(N)n2)cc1OC [4-(3,4-Dimethoxyphenyl)-6-(9-methyl-9H-carbazol-3-yl)-pyrimidin-2-amine (5c)] | 30.7
7 | Cn1c2ccccc2c2cc(-c3cc(-c4cccc(N)c4)nc(N)n3)ccc21 [4-(3-Aminophenyl)-6-(9-methyl-9H-carbazol-3-yl)-pyrimidin-2-amine (5p)] | 83.7
8 | Cn1c2ccccc2c2cc(-c3cc(-c4ccc(Br)cc4)nc(N)n3)ccc21 [4-(4-Bromophenyl)-6-(9-methyl-9H-carbazol-3-yl)-pyrimidin-2-amine (5l)] | 95.1
9 | Cn1c2ccccc2c2cc(-c3cc(-c4ccc(Cl)cc4)nc(N)n3)ccc21 [4-(4-Chlorophenyl)-6-(9-methyl-9H-carbazol-3-yl)-pyrimidin-2-amine (5h)] | > 100
10 | Cn1c2ccccc2c2cc(-c3cc(-c4ccc(F)cc4)nc(N)n3)ccc21 [4-(4-Fluorophenyl)-6-(9-methyl-9H-carbazol-3-yl)-pyrimidin-2-amine (5e)] | > 100
11 | COc1ccc(-c2cc(-c3ccc4c(c3)c3ccccc3n4C)nc(N)n2)cc1 [4-(4-Methoxyphenyl)-6-(9-methyl-9H-carbazol-3-yl)-pyrimidin-2-amine (5b)] | 95.4
12 | COc1cc(OC)c(-c2cc(-c3ccc4c(c3)c3ccccc3n4C)nc(N)n2)c(OC)c1 [4-(9-Methyl-9H-carbazol-3-yl)-6-(2,4,6-trimethoxyphenyl)-pyrimidin-2-amine (5d)] | 73.7
13 | Cn1c2ccccc2c2cc(-c3cc(-c4ccc([N+](=O)[O-])cc4)nc(N)n3)ccc21 [4-(9-Methyl-9H-carbazol-3-yl)-6-(4-nitrophenyl)-pyrimidin-2-amine (5m)] | 87.2
14 | Cn1c2ccccc2c2cc(-c3cc(-c4ccccn4)nc(N)n3)ccc21 [4-(9-Methyl-9H-carbazol-3-yl)-6-(pyridin-2-yl)-pyrimidin-2-amine (5o)] | > 100
15 | Cn1c2ccccc2c2cc(-c3cc(-c4cccs4)nc(N)n3)ccc21 [4-(9-Methyl-9H-carbazol-3-yl)-6-(thiophen-2-yl)-pyrimidin-2-amine (5n)] | > 100
16 | Cn1c2ccccc2c2cc(-c3cc(-c4ccccc4)nc(N)n3)ccc21 [4-(9-Methyl-9H-carbazol-3-yl)-6-phenylpyrimidin-2-amine (5a)] | > 100
